HELM strings list units from the 5' end as sugar, base in round brackets, then linkage (d deoxyribose, r ribose, m 2'-O-methyl, p phosphodiester). Strings are as the collection lists them; they lack the last nucleoside at the 3' end of the tested compound. [moe] = 2'-O-(2-methoxyethyl) (MOE); [sp] = phosphorothioate linkage; [m5C] = 5-methylcytosine

The target of this data set is GFAP. The experiment in a line: mouse, dose not given. The note with it: ASO.
Consider “RNA1{[moe]([m5C])[sp].[moe](T)p.[moe](T)p.[moe](T)p.[moe](A)[sp].d(T)[sp].d(T)[sp].d(T)[sp].d(T)[sp].d(T)[sp].d([m5C])[sp].d([m5C])[sp].d(T)[sp].[moe]([m5C])p.[moe](A)p.[moe](G)[sp].[moe]([m5C])}$$$$ (last 3' nucleoside missing)”, for which the 3 h FOB score was found to be 4 score 0-7. As for “RNA1{[moe]([m5C])[sp].[moe](T)p.[moe](T)p.[moe](T)p.[moe](A)[sp].d(T)[sp].d(T)[sp].d(T)[sp].d(T)[sp].d(T)[sp].d([m5C])[sp].d([m5C])[sp].d(T)[sp].d([m5C])[sp].d(A)[sp].[moe](G)p.[moe]([m5C])p.[moe](G)[sp].[moe](A)}$$$$ (last 3' nucleoside missing)”, the figure is 0 score 0-7; as for “RNA1{[moe]([m5C])[sp].[moe](T)p.[moe](T)p.[moe](T)p.[moe](A)p.[moe](T)p.d(T)[sp].d(T)[sp].d(T)[sp].d(T)[sp].d([m5C])[sp].d([m5C])[sp].d(T)[sp].d([m5C])[sp].d(A)[sp].d(G)[sp].[moe]([m5C])p.[moe](G)[sp].[moe](A)}$$$$ (last 3' nucleoside missing)”, 1 score 0-7. The same measure for “RNA1{[moe]([m5C])[sp].[moe](T)p.[moe](T)p.[moe](T)p.[moe](T)p.d(G)[sp].d(A)[sp].d(G)[sp].d(A)[sp].d(T)[sp].d(A)[sp].d(T)[sp].d([m5C])[sp].d(T)[sp].d(T)[sp].[moe](G)p.[moe](T)p.[moe](G)[sp].[moe](A)}$$$$ (last 3' nucleoside missing)”: 0 score 0-7; for “RNA1{[moe]([m5C])[sp].[moe](T)p.[moe](T)p.[moe](T)p.[moe]([m5C])[sp].d(T)[sp].d([m5C])[sp].d(T)[sp].d([m5C])[sp].d([m5C])[sp].d(T)[sp].d(G)[sp].d(T)[sp].d(T)[sp].d(T)[sp].[moe]([m5C])p.[moe](A)p.[moe](G)[sp].[moe]([m5C])}$$$$ (last 3' nucleoside missing)”: 3 score 0-7; for “RNA1{[moe]([m5C])[sp].[moe](T)p.[moe](T)p.[moe](T)p.d(T)[sp].d(G)[sp].d(A)[sp].d(G)[sp].d(A)[sp].d(T)[sp].d(A)[sp].d(T)[sp].d([m5C])[sp].d(T)[sp].[moe](T)p.[moe](G)p.[moe](T)p.[moe](G)[sp].[moe](A)}$$$$ (last 3' nucleoside missing)”: 1 score 0-7. As for “RNA1{[moe]([m5C])[sp].[moe](T)p.[moe]([m5C])p.[moe](A)p.[moe](G)p.[moe](T)p.d(T)[sp].d(T)[sp].d(T)[sp].d([m5C])[sp].d([m5C])[sp].d(T)[sp].d([m5C])[sp].d([m5C])[sp].d(A)[sp].d(G)[sp].[moe]([m5C])p.[moe](A)[sp].[moe](G)}$$$$ (last 3' nucleoside missing)”, the figure is 2 score 0-7; as for “RNA1{[moe]([m5C])[sp].[moe](T)p.[moe]([m5C])p.[moe](T)p.[moe](A)[sp].d(T)[sp].d([m5C])[sp].d([m5C])[sp].d([m5C])[sp].d(T)[sp].d([m5C])[sp].d([m5C])[sp].d([m5C])[sp].d(A)[sp].d(G)[sp].[moe]([m5C])p.[moe](A)p.[moe]([m5C])[sp].[moe]([m5C])}$$$$ (last 3' nucleoside missing)”, 2 score 0-7; as for “RNA1{[moe]([m5C])[sp].[moe](T)p.[moe]([m5C])p.[moe](T)p.[moe](G)p.d([m5C])[sp].d([m5C])[sp].d(A)[sp].d(T)[sp].d(T)[sp].d(T)[sp].d(A)[sp].d(T)[sp].d([m5C])[sp].d(T)[sp].[moe](G)p.[moe](T)p.[moe](G)[sp].[moe]([m5C])}$$$$ (last 3' nucleoside missing)”, 0 score 0-7. Regarding “RNA1{[moe]([m5C])[sp].[moe](T)p.[moe]([m5C])p.[moe]([m5C])p.[moe](A)[sp].d(T)[sp].d([m5C])[sp].d(T)[sp].d([m5C])[sp].d(T)[sp].d(G)[sp].d(G)[sp].d([m5C])[sp].d(A)[sp].d(A)[sp].[moe]([m5C])p.[moe](A)p.[moe](G)[sp].[moe](T)}$$$$ (last 3' nucleoside missing)”, the 3 h FOB score is 4 score 0-7. As for “RNA1{[moe]([m5C])[sp].[moe](T)p.[moe]([m5C])p.[moe]([m5C])p.[moe](T)[sp].d(G)[sp].d(T)[sp].d(T)[sp].d(T)[sp].d([m5C])[sp].d(A)[sp].d(G)[sp].d([m5C])[sp].d(A)[sp].d(T)[sp].[moe]([m5C])p.[moe](T)p.[moe](T)[sp].[moe]([m5C])}$$$$ (last 3' nucleoside missing)”, the figure is 2 score 0-7; as for “RNA1{[moe]([m5C])[sp].[moe]([m5C])p.[moe](A)p.[moe](G)p.[moe](T)[sp].d(G)[sp].d(T)[sp].d([m5C])[sp].d(T)[sp].d(T)[sp].d([m5C])[sp].d(A)[sp].d([m5C])[sp].d(T)[sp].d(T)[sp].[moe](T)p.[moe](G)p.[moe]([m5C])[sp].[moe](T)}$$$$ (last 3' nucleoside missing)”, 0 score 0-7; as for “RNA1{[moe]([m5C])[sp].[moe]([m5C])p.[moe](A)p.[moe](G)p.[moe](T)[sp].d(G)[sp].d([m5C])[sp].d([m5C])[sp].d([m5C])[sp].d(T)[sp].d(T)[sp].d([m5C])[sp].d([m5C])[sp].d([m5C])[sp].d(A)[sp].[moe]([m5C])p.[moe](G)p.[moe](A)[sp].[moe](G)}$$$$ (last 3' nucleoside missing)”, 2 score 0-7. As for “RNA1{[moe]([m5C])[sp].[moe]([m5C])p.[moe](A)p.[moe](G)p.[moe](T)p.d(G)[sp].d(T)[sp].d([m5C])[sp].d(T)[sp].d(T)[sp].d([m5C])[sp].d(A)[sp].d([m5C])[sp].d(T)[sp].d(T)[sp].[moe](T)p.[moe](G)p.[moe]([m5C])[sp].[moe](T)}$$$$ (last 3' nucleoside missing)”, the figure is 0 score 0-7; as for “RNA1{[moe]([m5C])[sp].[moe]([m5C])p.[moe](A)p.[moe](T)p.[moe](T)[sp].d(T)[sp].d(A)[sp].d(T)[sp].d([m5C])[sp].d(T)[sp].d(G)[sp].d(T)[sp].d(G)[sp].[moe]([m5C])p.[moe](T)p.[moe](T)[sp].[moe](T)}$$$$ (last 3' nucleoside missing)”, 4 score 0-7; as for “RNA1{[moe]([m5C])[sp].[moe]([m5C])p.[moe](A)p.[moe](T)p.[moe](T)[sp].d(T)[sp].d(A)[sp].d(T)[sp].d([m5C])[sp].d(T)[sp].d(G)[sp].d(T)[sp].d(G)[sp].d([m5C])[sp].d(T)[sp].[moe](T)p.[moe](T)p.[moe](A)[sp].[moe](G)}$$$$ (last 3' nucleoside missing)”, 6 score 0-7. As for “RNA1{[moe]([m5C])[sp].[moe]([m5C])p.[moe](T)p.[moe](G)p.[moe](T)p.[moe](G)p.d(A)[sp].d([m5C])[sp].d(T)[sp].d(A)[sp].d(T)[sp].d([m5C])[sp].d(T)[sp].d(A)[sp].d(G)[sp].d(G)[sp].[moe](A)p.[moe](T)[sp].[moe](T)}$$$$ (last 3' nucleoside missing)”, the figure is 1 score 0-7. “RNA1{[moe]([m5C])[sp].[moe]([m5C])p.[moe](T)p.[moe](G)p.[moe](T)p.d(G)[sp].d(A)[sp].d([m5C])[sp].d(T)[sp].d(A)[sp].d(T)[sp].d([m5C])[sp].d(T)[sp].d(A)[sp].d(G)[sp].[moe](G)p.[moe](A)p.[moe](T)[sp].[moe](T)}$$$$ (last 3' nucleoside missing)” registered a 3 h FOB score of 2 score 0-7.

The record behind these values is the OligoGym collection.
